Laboratory results from ChEMBL document CHEMBL1201862, “PubChem BioAssay data set” (2004).
Activity calls are given as the source filed them.

Key:
[1] = molecular target: T1, Alkaline phosphatase, tissue-nonspecific isozyme (Homo sapiens, UniProt P05186); experiment: activation of tissue-nonspecific alkaline phosphatase – biochemical, TNAP isozyme, human IAP uHTS hits, selectivity assay for human IAP activator project, dose response (AID 488886); assay type: functional;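 note: potency of compounds raising TNAP activity as a selectivity check on IAP activators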
T1 sequence (P05186 whole entry): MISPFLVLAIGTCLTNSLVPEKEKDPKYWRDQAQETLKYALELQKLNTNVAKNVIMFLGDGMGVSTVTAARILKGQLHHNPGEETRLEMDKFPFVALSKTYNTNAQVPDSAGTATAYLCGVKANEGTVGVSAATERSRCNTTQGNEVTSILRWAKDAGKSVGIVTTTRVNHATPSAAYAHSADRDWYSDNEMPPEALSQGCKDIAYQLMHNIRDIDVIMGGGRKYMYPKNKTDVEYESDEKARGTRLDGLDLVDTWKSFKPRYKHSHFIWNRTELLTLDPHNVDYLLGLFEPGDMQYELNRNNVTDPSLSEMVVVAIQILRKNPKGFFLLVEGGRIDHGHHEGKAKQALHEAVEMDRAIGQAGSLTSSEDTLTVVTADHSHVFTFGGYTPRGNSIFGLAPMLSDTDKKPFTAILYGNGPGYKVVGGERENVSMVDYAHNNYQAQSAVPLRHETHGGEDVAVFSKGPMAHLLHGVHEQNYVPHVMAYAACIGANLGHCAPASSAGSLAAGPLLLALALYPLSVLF

[2] = molecular target: Intestinal-type alkaline phosphatase (Mus musculus, UniProt P24822); experiment: PubChem AID 488874; assay type: functional
[3] = molecular target: T2, Intestinal-type alkaline phosphatase (Homo sapiens, UniProt P09923); experiment: activation of human intestinal alkaline phosphatase – biochemical, luminescent, uHTS hits, set 2, dose response (AID 488817); assay type: functional;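 note: potency of activators that raise enzyme activity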
[4] = molecular target: T2, Intestinal-type alkaline phosphatase; experiment: human intestinal alkaline phosphatase activators, dose response, biochemical, luminescence, uHTS hits (AID 463120); assay type: functional
[5] = molecular target: Glyceraldehyde-3-phosphate dehydrogenase (Homo sapiens, UniProt P04406)
Protein RecA = molecular target: T3, Protein RecA (Mycobacterium tuberculosis, UniProt P9WHJ3); experiment: Fluorescence Cell-Free Homogeneous Dose Retest to Identify Inhibitors of RecA-Intein Splicing Activity. [Related pubchem assays (depositor defined):AID2097, AID2223, AID489010, AID492950]; assay type: functional
T3 sequence (P9WHJ3 whole entry): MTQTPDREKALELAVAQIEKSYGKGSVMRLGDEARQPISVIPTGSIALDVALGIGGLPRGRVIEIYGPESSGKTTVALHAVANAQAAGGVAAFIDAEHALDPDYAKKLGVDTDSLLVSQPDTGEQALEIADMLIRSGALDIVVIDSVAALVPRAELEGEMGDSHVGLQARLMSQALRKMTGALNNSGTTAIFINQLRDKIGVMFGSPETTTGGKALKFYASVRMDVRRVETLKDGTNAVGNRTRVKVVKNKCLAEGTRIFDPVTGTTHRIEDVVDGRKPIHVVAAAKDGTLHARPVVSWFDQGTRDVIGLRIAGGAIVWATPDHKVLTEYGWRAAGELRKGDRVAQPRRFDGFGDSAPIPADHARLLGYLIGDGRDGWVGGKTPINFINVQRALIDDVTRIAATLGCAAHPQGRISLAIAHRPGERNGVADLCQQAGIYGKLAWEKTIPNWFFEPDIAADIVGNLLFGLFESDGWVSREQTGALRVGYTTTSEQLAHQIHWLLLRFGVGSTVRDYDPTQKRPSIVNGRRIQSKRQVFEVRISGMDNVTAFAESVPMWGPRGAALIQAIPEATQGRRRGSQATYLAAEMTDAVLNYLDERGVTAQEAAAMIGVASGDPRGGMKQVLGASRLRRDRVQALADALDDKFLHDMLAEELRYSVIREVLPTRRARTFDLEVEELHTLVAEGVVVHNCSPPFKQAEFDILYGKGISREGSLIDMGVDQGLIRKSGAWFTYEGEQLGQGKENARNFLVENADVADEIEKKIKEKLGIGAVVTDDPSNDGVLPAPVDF

[6] = molecular target: T1, Alkaline phosphatase, tissue-nonspecific isozyme; experiment: potency against alkaline phosphatase TNAP – biochemical, luminescent, dose response, SAR follow-up (AID 1056)
[7] = molecular target: T4, Replicative DNA helicase DnaB (Mycobacterium tuberculosis, UniProt P9WMR3); experiment: DnaB intein splicing inhibitors, dose response, biochemical, cell-free fluorescence (AID 449749); assay type: functional
T4 sequence (P9WMR3 whole entry): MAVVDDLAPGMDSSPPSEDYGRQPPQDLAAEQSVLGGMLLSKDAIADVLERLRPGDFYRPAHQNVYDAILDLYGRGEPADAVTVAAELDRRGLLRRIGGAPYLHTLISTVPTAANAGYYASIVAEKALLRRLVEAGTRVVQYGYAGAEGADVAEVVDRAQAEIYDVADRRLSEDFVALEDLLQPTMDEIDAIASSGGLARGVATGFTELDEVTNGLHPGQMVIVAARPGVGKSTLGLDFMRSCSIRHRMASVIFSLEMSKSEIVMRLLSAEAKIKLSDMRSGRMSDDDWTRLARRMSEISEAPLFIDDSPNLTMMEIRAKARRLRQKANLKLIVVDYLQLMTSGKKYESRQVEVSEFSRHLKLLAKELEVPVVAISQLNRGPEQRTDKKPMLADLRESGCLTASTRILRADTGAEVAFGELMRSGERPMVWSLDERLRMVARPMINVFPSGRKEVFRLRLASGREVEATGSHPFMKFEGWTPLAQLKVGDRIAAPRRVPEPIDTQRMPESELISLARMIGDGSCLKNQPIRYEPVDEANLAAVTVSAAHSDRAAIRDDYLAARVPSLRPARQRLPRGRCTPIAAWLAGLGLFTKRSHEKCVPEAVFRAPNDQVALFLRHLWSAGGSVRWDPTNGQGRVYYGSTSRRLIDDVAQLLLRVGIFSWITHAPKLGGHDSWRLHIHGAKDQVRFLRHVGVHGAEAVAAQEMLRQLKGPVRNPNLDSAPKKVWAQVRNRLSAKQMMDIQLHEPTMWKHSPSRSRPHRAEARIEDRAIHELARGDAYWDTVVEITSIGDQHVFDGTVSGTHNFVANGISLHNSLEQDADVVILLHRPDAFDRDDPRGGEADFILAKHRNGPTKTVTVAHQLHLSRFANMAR

[8] = molecular target: Alkaline phosphatase, placental type (Homo sapiens, UniProt P05187); experiment: human placental alkaline phosphatase inhibition – biochemical, luminescence, confirmation (AID 1512); assay type: functional
[9] = molecular target: T5, High affinity choline transporter 1 (Homo sapiens, UniProt Q9GZV3); experiment: human choline transporter blockers, potency – cell-based, 5-point CRC, membrane potential dye, dose response (AID 504840); assay type: functional
T5 sequence (Q9GZV3 whole entry): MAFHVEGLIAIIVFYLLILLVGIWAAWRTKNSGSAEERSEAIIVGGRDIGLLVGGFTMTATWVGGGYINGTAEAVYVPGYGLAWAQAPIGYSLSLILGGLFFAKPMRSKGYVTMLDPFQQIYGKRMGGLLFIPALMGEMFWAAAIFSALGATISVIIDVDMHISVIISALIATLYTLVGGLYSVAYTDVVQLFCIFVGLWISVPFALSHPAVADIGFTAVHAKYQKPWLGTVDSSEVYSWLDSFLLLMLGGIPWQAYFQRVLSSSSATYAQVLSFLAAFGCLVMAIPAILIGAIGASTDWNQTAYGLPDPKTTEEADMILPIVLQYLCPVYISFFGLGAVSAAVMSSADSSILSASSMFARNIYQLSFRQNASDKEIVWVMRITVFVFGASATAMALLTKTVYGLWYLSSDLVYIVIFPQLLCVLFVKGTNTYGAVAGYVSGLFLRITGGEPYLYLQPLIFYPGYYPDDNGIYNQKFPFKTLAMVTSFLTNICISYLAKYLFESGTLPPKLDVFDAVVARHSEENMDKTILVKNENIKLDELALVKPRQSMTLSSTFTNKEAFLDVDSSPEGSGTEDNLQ

[10] = molecular target: T6, Runt-related transcription factor 1/Core-binding factor subunit beta (Homo sapiens, UniProt Q01196+Q13951); experiment: disruptors of Runt domain/CBFb-SMMHC interaction – biochemical, FRET, Cerulean-Runt, Venus-CBFb-SMMHC, uHTS, […] (AID 1434); assay type: protein assay
[11] = molecular target: T6, Runt-related transcription factor 1/Core-binding factor subunit beta; experiment: Runt domain/CBFb-SMMHC interaction disruptors – biochemical, TR-FRET (AID 1438); assay type: protein assay
[12] = molecular target: T7, COUP transcription factor 2 (Homo sapiens, UniProt P24468); experiment: Luminescence-based cell-based high throughput dose response assay to identify inhibitors of COUP-TFII (NR2F2).; assay type: functional;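 note: HEK293 cells transiently cotransfected with COUP-TFII expression vector and reporter; luciferase reporter luminescence driven by COUP-TFII from the pX2-168 reporter plasmid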
T7 sequence (P24468 whole entry): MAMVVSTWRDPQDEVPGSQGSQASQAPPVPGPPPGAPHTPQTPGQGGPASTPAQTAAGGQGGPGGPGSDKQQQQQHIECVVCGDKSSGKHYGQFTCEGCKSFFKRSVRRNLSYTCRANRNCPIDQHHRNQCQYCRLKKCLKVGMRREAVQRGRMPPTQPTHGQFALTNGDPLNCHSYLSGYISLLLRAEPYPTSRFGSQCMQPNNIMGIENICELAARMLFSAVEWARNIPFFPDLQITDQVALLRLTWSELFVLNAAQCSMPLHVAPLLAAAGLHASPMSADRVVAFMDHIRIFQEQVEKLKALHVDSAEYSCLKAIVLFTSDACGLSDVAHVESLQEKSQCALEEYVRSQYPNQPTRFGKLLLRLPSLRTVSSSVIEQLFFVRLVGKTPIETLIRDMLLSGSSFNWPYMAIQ

[13] = HIV-1 AD8 envelope cell-cell fusion blockers – cherry-pick, dose response (AID 652062); assay type: functional, cell-based;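 note: luciferase signal from cell-cell fusion driven by HIV-1 clade B AD8 Env; potency is for inhibitors of fusion seen as a drop in luminescence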
HEK293 = experiment: cells; conditions: Homo sapiens;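 note: cells exposed to compound for 14 hours overnight before viability readout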
[14] = blockers of HIV-1 ZM109 envelope-driven cell-cell fusion – HeLa effector, CEM target cells, luciferase, cherry-pick, dose response (AID 652058); assay type: functional, cell-based;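 note: luciferase signal from HIV-1 Env mediated cell-cell fusion of effector and target cells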
Tumor necrosis factor = Tumor necrosis factor (Homo sapiens, UniProt P01375); experiment: analog potency on TNFa NF-kB signaling – cell-based, revised, SAR follow-up (AID 2337); assay type: functional
[15] = molecular target: T8, Nucleotide-binding oligomerization domain-containing protein 1 (Homo sapiens, UniProt Q9Y239); experiment: blockers of NOD1 pathway activity – revised, SAR follow-up (AID 2333); assay type: functional
T8 sequence (Q9Y239 whole entry): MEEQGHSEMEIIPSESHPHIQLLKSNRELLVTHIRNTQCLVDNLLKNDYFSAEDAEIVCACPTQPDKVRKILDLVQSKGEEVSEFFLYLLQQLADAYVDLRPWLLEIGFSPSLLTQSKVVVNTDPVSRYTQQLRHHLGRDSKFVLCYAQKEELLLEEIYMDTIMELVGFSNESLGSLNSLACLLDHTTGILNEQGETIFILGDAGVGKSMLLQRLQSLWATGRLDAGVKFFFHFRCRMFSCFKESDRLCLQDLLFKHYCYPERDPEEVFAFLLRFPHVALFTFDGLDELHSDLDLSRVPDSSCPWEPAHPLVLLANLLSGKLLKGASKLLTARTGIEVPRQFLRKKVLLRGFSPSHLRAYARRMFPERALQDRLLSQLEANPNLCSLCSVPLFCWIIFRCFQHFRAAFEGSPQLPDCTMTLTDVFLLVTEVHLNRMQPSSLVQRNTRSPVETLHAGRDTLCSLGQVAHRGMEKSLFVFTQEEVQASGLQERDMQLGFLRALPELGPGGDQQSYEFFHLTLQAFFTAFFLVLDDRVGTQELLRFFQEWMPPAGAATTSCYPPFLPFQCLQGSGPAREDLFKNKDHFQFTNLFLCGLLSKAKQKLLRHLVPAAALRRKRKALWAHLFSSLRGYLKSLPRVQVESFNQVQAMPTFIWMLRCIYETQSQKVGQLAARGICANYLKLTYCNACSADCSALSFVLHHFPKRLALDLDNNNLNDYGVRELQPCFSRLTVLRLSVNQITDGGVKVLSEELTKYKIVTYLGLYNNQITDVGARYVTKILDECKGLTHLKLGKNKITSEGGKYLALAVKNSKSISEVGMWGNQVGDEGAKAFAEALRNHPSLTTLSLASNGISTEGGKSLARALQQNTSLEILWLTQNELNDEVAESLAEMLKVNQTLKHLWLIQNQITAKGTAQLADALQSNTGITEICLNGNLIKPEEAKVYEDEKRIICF

[16] = Luminescence Cell-Based Dose Retest to Confirm Inhibitors of Cancer Stem Cells. [Related pubchem assays (depositor defined):AID2717, AID2721]; assay type: functional; conditions: Homo sapiens
[17] = viability loss of HMLE_sh_eGFP cells – cell-based, luminescence, counter-screen for HMLE_sh_ECad selective toxicity project, dose response (AID 463074); assay type: functional, Homo sapiens;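 note: HMLE human mammary epithelial cells expressing control shRNA against eGFP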

Intestinal-type alkaline phosphatase (Mus musculus, UniProt P24822), sequence (P24822 whole entry): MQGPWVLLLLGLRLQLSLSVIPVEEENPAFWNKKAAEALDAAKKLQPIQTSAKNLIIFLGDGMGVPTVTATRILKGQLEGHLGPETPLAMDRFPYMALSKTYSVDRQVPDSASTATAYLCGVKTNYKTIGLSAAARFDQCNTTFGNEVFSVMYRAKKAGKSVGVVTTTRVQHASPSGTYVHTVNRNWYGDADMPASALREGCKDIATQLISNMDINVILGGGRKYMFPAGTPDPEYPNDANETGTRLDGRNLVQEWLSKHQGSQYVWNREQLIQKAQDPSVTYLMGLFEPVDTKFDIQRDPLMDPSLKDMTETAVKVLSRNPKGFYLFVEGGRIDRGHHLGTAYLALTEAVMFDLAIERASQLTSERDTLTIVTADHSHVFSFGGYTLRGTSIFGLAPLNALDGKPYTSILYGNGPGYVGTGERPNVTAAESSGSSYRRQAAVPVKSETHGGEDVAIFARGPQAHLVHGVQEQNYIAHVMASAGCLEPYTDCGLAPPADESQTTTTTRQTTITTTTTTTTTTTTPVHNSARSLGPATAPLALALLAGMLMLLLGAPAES
T2 sequence (P09923 whole entry): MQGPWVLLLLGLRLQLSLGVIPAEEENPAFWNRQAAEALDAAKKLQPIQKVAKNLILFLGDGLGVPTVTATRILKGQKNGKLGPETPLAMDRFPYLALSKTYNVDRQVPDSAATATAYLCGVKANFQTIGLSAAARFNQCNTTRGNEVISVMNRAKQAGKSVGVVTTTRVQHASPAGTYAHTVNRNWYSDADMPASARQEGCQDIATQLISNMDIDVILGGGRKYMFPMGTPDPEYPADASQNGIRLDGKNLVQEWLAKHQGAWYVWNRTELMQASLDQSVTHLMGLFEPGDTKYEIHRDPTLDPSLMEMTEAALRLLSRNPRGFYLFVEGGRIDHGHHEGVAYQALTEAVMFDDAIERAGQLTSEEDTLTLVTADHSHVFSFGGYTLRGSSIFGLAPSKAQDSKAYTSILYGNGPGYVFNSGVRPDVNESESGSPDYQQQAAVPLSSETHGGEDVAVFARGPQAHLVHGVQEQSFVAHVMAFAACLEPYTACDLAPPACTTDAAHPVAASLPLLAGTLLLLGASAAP
T6 sequence (Q01196 whole entry, the tested form may be a part): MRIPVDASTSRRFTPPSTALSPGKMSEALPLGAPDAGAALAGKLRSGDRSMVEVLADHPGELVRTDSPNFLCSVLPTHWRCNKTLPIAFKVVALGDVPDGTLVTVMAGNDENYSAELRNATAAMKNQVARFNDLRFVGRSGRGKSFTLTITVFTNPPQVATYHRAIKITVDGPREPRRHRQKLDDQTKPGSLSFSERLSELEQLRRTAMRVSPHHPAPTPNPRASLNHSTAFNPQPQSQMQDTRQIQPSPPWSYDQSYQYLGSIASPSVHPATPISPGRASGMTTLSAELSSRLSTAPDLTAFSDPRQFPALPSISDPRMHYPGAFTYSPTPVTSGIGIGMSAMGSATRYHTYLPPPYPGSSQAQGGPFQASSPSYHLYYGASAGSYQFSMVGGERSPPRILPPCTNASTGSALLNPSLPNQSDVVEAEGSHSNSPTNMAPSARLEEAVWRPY
T6 sequence (Q13951 whole entry, the tested form may be a part): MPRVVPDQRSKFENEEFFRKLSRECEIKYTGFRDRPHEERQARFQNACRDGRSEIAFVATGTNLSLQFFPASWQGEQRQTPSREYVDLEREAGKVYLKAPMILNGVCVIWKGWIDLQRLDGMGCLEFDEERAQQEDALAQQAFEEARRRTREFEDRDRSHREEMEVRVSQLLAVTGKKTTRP
Tumor necrosis factor, sequence (P01375 whole entry, the tested form may be a part): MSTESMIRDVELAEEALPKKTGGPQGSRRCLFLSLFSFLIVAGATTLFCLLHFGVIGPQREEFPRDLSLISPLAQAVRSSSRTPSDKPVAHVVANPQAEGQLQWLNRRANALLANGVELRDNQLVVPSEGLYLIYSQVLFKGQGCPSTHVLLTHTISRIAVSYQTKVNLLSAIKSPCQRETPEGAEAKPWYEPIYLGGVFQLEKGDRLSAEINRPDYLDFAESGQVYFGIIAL
Alkaline phosphatase, placental type, sequence (P05187 whole entry): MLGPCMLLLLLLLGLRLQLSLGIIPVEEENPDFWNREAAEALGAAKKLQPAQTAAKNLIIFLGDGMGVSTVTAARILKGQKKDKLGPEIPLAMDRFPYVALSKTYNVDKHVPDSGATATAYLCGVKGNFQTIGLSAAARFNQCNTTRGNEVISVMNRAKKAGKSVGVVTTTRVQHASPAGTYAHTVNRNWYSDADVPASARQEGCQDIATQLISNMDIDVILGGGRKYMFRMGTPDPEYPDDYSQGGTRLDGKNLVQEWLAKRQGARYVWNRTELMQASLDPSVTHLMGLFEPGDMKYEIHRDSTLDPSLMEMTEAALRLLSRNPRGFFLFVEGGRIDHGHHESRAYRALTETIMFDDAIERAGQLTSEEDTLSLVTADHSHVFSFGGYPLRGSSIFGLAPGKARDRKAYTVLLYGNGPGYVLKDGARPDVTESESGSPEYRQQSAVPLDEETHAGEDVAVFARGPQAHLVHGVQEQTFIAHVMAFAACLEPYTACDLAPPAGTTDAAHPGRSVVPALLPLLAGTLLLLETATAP
Glyceraldehyde-3-phosphate dehydrogenase, sequence (P04406 whole entry): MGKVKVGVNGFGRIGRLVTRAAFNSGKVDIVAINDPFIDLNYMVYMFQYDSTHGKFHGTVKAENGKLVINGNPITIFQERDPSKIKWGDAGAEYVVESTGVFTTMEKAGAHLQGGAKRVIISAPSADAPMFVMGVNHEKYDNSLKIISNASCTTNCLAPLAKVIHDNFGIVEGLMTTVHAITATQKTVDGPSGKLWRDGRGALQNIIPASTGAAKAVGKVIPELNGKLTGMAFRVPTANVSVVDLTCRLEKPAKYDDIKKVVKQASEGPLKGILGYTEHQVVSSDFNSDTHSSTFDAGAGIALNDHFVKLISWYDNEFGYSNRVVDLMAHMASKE

CCOc1ccc(CC(=O)NNC(=S)NC2CCCCC2)cc1OCC
EC50 [1]: 17.2 µM (active)
IC50 [2]: 40.9 µM (active)
EC50 [3]: 17.8 µM (active)
EC50 [4]: 18.7 µM (active)

CCCc1c(O)oc2nnc(C)c-2c1C
IC50 [5]: > 100 µM (not active)
EC50 (Protein RecA): 14.8 µM (active)
IC50 [6]: > 100 µM (inactive)
AC50 [7]: 23.6 µM (active)
IC50 [8]: > 100 µM (inactive)

CC1CCN(CCNC(=O)C2CCCN(S(=O)(=O)c3cccc4nsnc34)C2)CC1 (configuration not stated)
IC50 [9]: 15.8 µM (active)

CCCc1cc2c(OC(=O)CC)c(-c3ccc(C(=O)OCC)o3)c(=O)oc2cc1OC
IC50 [10]: 5.51 µM (active)
IC50 [11]: 7.94 µM (active)

CN(C)C(=O)N1CCN(S(=O)(=O)c2ccc3ccccc3c2)CC1
IC50 [9]: 12.9 µM (active)

Cc1cc(C(=O)NC2CCCc3c2cnn3-c2ccc(C(C)(C)C)cc2)nn1C (configuration not stated)
IC50 [12]: 5.2 µM (active)
AC50 [13]: 4.61 µM (active)
IC50 (HEK293): 12.2 µM (active)
AC50 [14]: 1.86 µM (active)
IC50 (Tumor necrosis factor): 1.44 µM (active)
IC50 [15]: 1.33 µM (active)

CC(=O)c1cccc(NS(=O)(=O)c2cc(-c3cnc(C4CC4)o3)ccc2C)c1
AC50 [16]: 1.03 µM (active)
AC50 [17]: 25 µM (active)

Cc1cc(=O)[nH]c(-n2[nH]c3c(c2=O)CCCC3)n1
EC50 [1]: 12.2 µM (active)
IC50 [2]: > 100 µM (inactive)
EC50 [3]: 19.8 µM (active)
EC50 [4]: 9.58 µM (active)

O=C(c1cccc(Br)c1)c1coc2ccc(O)cc12
AC50 [16]: 0.913 µM (active)
AC50 [17]: 23.1 µM (active)

O=C(c1cccc(OC2CCN(Cc3ccc(F)cc3Cl)CC2)c1)N1CCCC1
IC50 [9]: 18.2 µM (active)

CSCCC(NS(=O)(=O)c1ccc(C)cc1)C(=O)NNC(=O)c1csc(N2CCOCC2)n1 (configuration not stated)
EC50 [1]: 19.1 µM (active)
IC50 [2]: 66.6 µM (active)
EC50 [3]: 14.1 µM (active)
EC50 [4]: 9.84 µM (active)
